US20230024584A1, “ANTI-CANCER COMPOSITIONS AND METHODS” (University of Kentucky Research Foundation, priority 2019, published 2023)

Tests used:
Format in all cases: cell-based
[1] = test system: H1975, PC9, PC9GR4 and H460 cells; test: Clonogenic assay, lung cancer cell lines; settings: 1.25, 2.5 or 5 μM for 72 h, then 10 days culture
Description: Clonogenic assays were also performed to determine the effect of lomitapide treatment on various lung cancer cell lines, with data reflected in FIGS. 28A-28E. Initially, 100 H1975, PC9, PC9GR4, or H460 cells were seeded into 6-cm cell culture dishes. After overnight culture, vehicle control (DMSO) or lomitapide (final concentration: 1.25, 2.5 or 5 μM) were added into the corresponding dishes. After 72 h culture, the DMSO- or lomitapide-containing media were removed and the fresh culture media were added in followed by additional 10 days culture. The culture media were replaced with fresh media every three days. At the end of cell culture, the final clones in dishes were fixed by 4% paraformaldehyde and stained with crystal violet. FIG. 28A includes representative images from each treatment groups. FIGS. 28B-28E include quantitation of clone numbers (mean±standard deviation, n=3). * p<0.05, compared to vehicle control (negative control) treatment group.

breast cancer cells = test: Cell cycle analysis, breast cancer cells; settings: 5 μM; 24, 48 and 72 h
Description: Initially, 0.1˜0.3 million of breast cancer cells were seeded into 6 cm culture dish and cultured overnight; then, the culture media were switched into FBS free medium for serum-starvation for 24 h for cell synchronization. After synchronization, the culture media were changed into FBS-containing medium and vehicle control (DMSO) or lomitapide (final concentration: 5 μM) were added into corresponding dishes. After 24, 48 and 72 h culture, cells were harvested, fixed by ice-cold ethanol, stained by PI for flow cytometry analysis of cell cycle. The results are presented as mean±standard deviation (n=3). * p<0.05, compared to vehicle control (negative control) treatment group.

[2] = test system: HCT116, HT29, DLD1, PT130 and SW480 cells; test: MTT assay, colon cancer cell lines; settings: 1.25, 2.5 and 5 μM; 24, 48, 72 h
Description: With reference to FIGS. 31A-31F, studies were conducted to determine the effect of lomitapide treatment on colon cancer cell growth as determined by the MTT assay. Initially, 1000 HCT116, HT29, DLD1, PT130, or SW480 cells were seeded into 96-well plates. After overnight culture, vehicle (DMSO) or lomitapide (final concentration: 1.25, 2.5 and 5 μM) were added into the corresponding wells. After 24 h, 48 h and 72 h incubation, the culture media were aspirated off and 50 μL of 0.5 mg/mL of MTT containing medium was added into each well. After 3h incubation, 200 μL of DMSO were added into each well. The OD value of each well was read under the wavelength of 570 nm. The results are presented as mean±standard deviation (n=6) * p<0.05, compared to vehicle control (negative control) treatment group.

PC9GR4 and A549 cells = test: Apoptosis (7-AAD/APC-annexin V flow cytometry), lung cancer cells; settings: 1.25, 2.5 or 5 μM, 48 h
Description: With reference to FIGS. 29A and 29B, studies were also conducted to determine the effect of lomitapide treatment on apoptosis of lung cancer cells. Initially, 0.1-0.3 million PC9GR4 or A549 cells were seeded into 6 cm cell culture dishes and cultured overnight. Vehicle control (DMSO) or lomitapide (final concentration: 1.25, 2.5 or 5 μM) was added then into corresponding dishes. After 48 h incubation, the cells were harvested, stained by 7-AAD/APC-annixin V and analyzed by flow cytometry. The results are presented as mean±standard deviation (n=3). * p<0.05, compared to vehicle control (negative control) treatment group.

[3] = test system: SUM159, MCF-7 and MDA-MB-453 cells; test: Soft agar colony formation assay, breast cancer cell lines; settings: 1.25, 2.5 or 5 μM, 1 month culture
Description: With reference to FIGS. 23A-23D, soft agar colony formation assays were also performed. Initially, 1000 SUM159 or MCF-7 cells, 10000 MDA-MB-453 cells were seeded into the upper agar of each dish; meanwhile, vehicle control (DMSO) or lomitapide (final concentration: 1.25, 2.5 or 5 μM) were added into the upper agar of corresponding dishes. After 1 month continuous culture, the final colonies formed in the agar were fixed by methanol and stained with crystal violet. FIG. 23A includes representative soft agar images from each treatment groups. FIGS. 23B-23D include the quantitation of soft agar clone numbers (mean standard deviation, n=3). * p<0.05, compared to vehicle control (negative control) treatment group.

lomitapide was tested, and the “lung cancer cell growth (clone numbers)” value [1] was “significantly reduces lung cancer cell growth”, the cell cycle distribution (breast cancer cells) was “significant G1 phase cell cycle arrest” and the “colon cancer cell growth (MTT)” value [2] was “significantly reduces colon cancer cell growth”. The apoptosis (PC9GR4 and A549 cells) was “induces apoptosis” and the “breast cancer cell growth (soft agar clone numbers)” value [3] was “significantly reduces breast cancer cell growth”.
